# Measurements: patent US11857635B2, “Linker compound, polyethylene glycol-linker conjugate and derivative thereof and polyethylene glycol-linker-drug conjugate” (JENKEM TECHNOLOGY CO., LTD. (TIANJIN), priority 2017, dated 2024)
# Test system: HCT116 tumor
# Assay: Tumor growth inhibition in HCT116 tumor heterotopic transplantation mouse model
# Assay type: in vivo
# Settings: HCT116 subcutaneous tumor in mice, FIG. 6
# Method: The experiment was carried out to detect a tumor growth inhibition effect of a drug on the HCT116 tumor heterotopic transplantation mouse model.
# G2: positive drug adriamycin (commercially available); and
# G3: 4arm PEG-L5-Dox (prepared in Example 22).
# An original culture solution was removed by suction after HCT116 cells (commercially available) were received, and 10 mL of fresh culture solution was added. The cells were collected and passaged when 90% of the cells were converged. After the culture solution was removed, 10 ml of EDTA/PBS solution was added and placed at room temperature for 5 minutes, and then the EDTA/PBS solution was removed by suction. […] The cells was counted with a counting plate and diluted with DMEM containing 10% FBS. […]
# The cell suspension was changed in advance when it was detected that 80% of the cells were converged on the inoculation day of the cells. […] The cells were counted with a counting plate and diluted with PBS to a concentration of 2*10^7 cells/mL, and then the cells were placed on ice until inoculation.
# HCT116 cells were subcutaneously inoculated in a right front axilla of a mouse. […] Tumor volumes were measured twice a week after inoculation, and when an average tumor volume reached 100 to 200 mm^3, 18 mice with similar tumor sizes were selected and randomly divided into 3 groups with 6 mice in each group. […]
compound,measurement,value
COc1cccc2c1C(=O)c1c(O)c3c(c(O)c1C2=O)C[C@@](O)(C(=O)CO)C[C@@H]3O[C@H]1C[C@H](N)[C@H](O)[C@H](C)O1 [adriamycin],Anti-tumor effect,obvious anti-tumor effects
